Here are results for 17 compounds from patent US20220135538A1, “P300/CBP HAT INHIBITORS AND METHODS FOR THEIR USE” (Constellation Pharmaceuticals, Inc., priority 2019, published 2022).

The target in assay [1] is T1, p300 HAT domain (residues 1287-1666) (Homo sapiens, UniProt Q09472).
T1 construct: The p300 HAT domain (residues 1287-1666) was expressed; His tag (N); made in house; host or cells: Escherichia coli
T1 sequence (Q09472 1287-1666): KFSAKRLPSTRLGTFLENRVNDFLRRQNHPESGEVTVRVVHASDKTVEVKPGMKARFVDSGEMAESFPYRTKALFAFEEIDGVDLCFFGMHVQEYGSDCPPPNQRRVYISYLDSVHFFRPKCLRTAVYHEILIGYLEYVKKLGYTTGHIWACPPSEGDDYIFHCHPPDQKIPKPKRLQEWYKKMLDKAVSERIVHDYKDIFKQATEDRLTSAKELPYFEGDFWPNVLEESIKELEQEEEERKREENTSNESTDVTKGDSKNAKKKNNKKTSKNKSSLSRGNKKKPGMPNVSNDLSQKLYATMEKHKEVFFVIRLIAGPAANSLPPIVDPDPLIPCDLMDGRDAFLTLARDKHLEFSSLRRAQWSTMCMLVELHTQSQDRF
Description: P300 HAT SPA assay (scintillation proximity, acetylation of biotinylated H3(1-21) peptide). It is filed as biochemical. The note with it: 6 nM p300-HAT domain; average of at least 2 replicate titrations. How it is done: The activity of the compounds described herein as p300/CBP HAT inhibitors may be readily determined using a scintillation proximity assay (SPA) methodology (Udenfriend, S.; Gerber, L.; Nelson, N. Scintillation Proximity Assay: A Sensitive and Continuous Isotopic Method for Monitoring Ligand/Receptor and Antigen/Antibody Interactions. Anal. Biochem. 1987, 161, 494-500).
In a typical experiment the p300 HAT inhibitory activity of the compounds described herein was determined in accordance with the following experimental method.
The p300 HAT domain (residues 1287-1666) was expressed and purified with an N-terminal His tag from Escherichia coli cells. The expressed protein was purified by Ni2+affinity, followed by anion exchange chromatography. Appropriate fractions were pooled and buffer exchanged into 20 mM Hepes pH 7.5, 150 mM NaCl, and 1 mM TCEP.
(§1) Compounds of interest solubilized in DMSO were stamped in a Greiner black 384-well plate in a 10-point duplicate dose response using an Echo 550 (Labcyte). p300-HAT domain purified in-house (aa 1287-1666) was diluted to 6 nM in reaction buffer (50 mM Tris pH 8.0, 100 mM NaCl, 1 mM DTT, 0.069 mM Brij-35, 0.1 mM EDTA, 0.1 mg/mL BSA), combined with 4.14 μM AcCoA (Sigma-Aldrich) and 0.46 μM ^3H-AcCoA (PerkinElmer), and 12.5 μL added to each well and incubated for 30 min at RT. Reactions were initiated with 12.5 μL 2 μM biotinylated H3(1-21) peptide (New England Peptide) and run for 1 hr at RT, then quenched with 20 μL stop solution (200 mM Tris pH 8.0, 200 mM EDTA, 2M NaCl, 160 μM anacardic acid). 35 μL of the reaction volume was transferred to a 384-well streptavidin FlashPlate (PerkinElmer) using a Bravo liquid handler (Velocity 11) and incubated for 1.5 hr at RT. Plates were aspirated, washed with 95 μL wash buffer (15 mM Tris pH 8.5, 0.069 μM Brij-35), aspirated, sealed, and scintillation counts read on a Topcount (PerkinElmer). Data were analyzed in Genedata to determine inhibitor IC50 values.
(In general: In a scintillation proximity assay essentially only radioactivity close to the scintillant gives light.)

Assay [2] has as its system acetylation of chromatin at H3K18 in HCT-116 cells. The assay can be described thus: H3K18Ac MSD cellular assay. It is filed as cell-based. The note with it: Homo sapiens, 2 hr treatment. How it is done: Select compounds were also evaluated in a H3K18Ac MSD cellular assay that measures the ability of compounds to inhibit the acetylation of chromatin at H3K18, a process catalyzed by p300 and CBP. In a typical experiment the p300 HAT inhibitory activity inside cells of the compounds described herein was determined in accordance with the following experimental method. 20 k HCT-116 cells per well are plated in 75 μL RPMI+10% FBS media the night before treatment. Compounds plated in DMSO at 4× final concentration are resuspended in 30 μL RPMI+10% FBS, then 25 μL is combined with corresponding wells containing cells. Treated cells are incubated for 2 hr at 37° C., then lysed in 500 μL final volume and frozen at −80° C. MSD plates (Meso Scale Discovery) are coated overnight at 4° C. with 60 μL 1:500 α-total histone antibody (Millipore MAB3422) in PBS. Plates are then blocked with 5% BSA in TBST shaking at RT for 1 hr, washed, and 30 μL lysate added to each well for 2 hr shaking at RT. Plates are washed and 25 μL 1:216 α-H3K18ac antibody (CST 9675) in PBS added, then incubated for 1 hr shaking at RT. Plates are washed again, then 25 μL 1:1000 Sulfo-Tag goat α-rabbit antibody (Meso Scale Discovery R32Ab-1) in PBS is added for 1 hr shaking at RT. Plates are washed once more, then 150 μL 1× Read Buffer (MSD #R92TD-3) is added to all wells and read on MSD SECTOR Imager 2400 using the conventional read setup.

For another assay, the target named is T2, full length p300 (Homo sapiens, UniProt Q09472).
T2 construct: used 6 nM purified full length p300 (purchased from Active Motif); purchased Active Motif
The assay can be described thus: Full length p300 SPA assay. Format: biochemical. The note with it: 6 nM purified full length p300; read-out: FL P300 IC50. How it is done:
as §1
The full length p300 SPA assay was run following the same protocol as p300 HAT SPA assay, but used 6 nM purified full length p300 (purchased from Active Motif) in place of the purified p300-HAT domain.

As usually defined, the IC50 is the concentration that gives 50% inhibition. Broadly, the EC50 is the midpoint of the concentration-response curve. A lower EC50 goes with higher potency in that assay.

T2 sequence (Q09472 whole entry): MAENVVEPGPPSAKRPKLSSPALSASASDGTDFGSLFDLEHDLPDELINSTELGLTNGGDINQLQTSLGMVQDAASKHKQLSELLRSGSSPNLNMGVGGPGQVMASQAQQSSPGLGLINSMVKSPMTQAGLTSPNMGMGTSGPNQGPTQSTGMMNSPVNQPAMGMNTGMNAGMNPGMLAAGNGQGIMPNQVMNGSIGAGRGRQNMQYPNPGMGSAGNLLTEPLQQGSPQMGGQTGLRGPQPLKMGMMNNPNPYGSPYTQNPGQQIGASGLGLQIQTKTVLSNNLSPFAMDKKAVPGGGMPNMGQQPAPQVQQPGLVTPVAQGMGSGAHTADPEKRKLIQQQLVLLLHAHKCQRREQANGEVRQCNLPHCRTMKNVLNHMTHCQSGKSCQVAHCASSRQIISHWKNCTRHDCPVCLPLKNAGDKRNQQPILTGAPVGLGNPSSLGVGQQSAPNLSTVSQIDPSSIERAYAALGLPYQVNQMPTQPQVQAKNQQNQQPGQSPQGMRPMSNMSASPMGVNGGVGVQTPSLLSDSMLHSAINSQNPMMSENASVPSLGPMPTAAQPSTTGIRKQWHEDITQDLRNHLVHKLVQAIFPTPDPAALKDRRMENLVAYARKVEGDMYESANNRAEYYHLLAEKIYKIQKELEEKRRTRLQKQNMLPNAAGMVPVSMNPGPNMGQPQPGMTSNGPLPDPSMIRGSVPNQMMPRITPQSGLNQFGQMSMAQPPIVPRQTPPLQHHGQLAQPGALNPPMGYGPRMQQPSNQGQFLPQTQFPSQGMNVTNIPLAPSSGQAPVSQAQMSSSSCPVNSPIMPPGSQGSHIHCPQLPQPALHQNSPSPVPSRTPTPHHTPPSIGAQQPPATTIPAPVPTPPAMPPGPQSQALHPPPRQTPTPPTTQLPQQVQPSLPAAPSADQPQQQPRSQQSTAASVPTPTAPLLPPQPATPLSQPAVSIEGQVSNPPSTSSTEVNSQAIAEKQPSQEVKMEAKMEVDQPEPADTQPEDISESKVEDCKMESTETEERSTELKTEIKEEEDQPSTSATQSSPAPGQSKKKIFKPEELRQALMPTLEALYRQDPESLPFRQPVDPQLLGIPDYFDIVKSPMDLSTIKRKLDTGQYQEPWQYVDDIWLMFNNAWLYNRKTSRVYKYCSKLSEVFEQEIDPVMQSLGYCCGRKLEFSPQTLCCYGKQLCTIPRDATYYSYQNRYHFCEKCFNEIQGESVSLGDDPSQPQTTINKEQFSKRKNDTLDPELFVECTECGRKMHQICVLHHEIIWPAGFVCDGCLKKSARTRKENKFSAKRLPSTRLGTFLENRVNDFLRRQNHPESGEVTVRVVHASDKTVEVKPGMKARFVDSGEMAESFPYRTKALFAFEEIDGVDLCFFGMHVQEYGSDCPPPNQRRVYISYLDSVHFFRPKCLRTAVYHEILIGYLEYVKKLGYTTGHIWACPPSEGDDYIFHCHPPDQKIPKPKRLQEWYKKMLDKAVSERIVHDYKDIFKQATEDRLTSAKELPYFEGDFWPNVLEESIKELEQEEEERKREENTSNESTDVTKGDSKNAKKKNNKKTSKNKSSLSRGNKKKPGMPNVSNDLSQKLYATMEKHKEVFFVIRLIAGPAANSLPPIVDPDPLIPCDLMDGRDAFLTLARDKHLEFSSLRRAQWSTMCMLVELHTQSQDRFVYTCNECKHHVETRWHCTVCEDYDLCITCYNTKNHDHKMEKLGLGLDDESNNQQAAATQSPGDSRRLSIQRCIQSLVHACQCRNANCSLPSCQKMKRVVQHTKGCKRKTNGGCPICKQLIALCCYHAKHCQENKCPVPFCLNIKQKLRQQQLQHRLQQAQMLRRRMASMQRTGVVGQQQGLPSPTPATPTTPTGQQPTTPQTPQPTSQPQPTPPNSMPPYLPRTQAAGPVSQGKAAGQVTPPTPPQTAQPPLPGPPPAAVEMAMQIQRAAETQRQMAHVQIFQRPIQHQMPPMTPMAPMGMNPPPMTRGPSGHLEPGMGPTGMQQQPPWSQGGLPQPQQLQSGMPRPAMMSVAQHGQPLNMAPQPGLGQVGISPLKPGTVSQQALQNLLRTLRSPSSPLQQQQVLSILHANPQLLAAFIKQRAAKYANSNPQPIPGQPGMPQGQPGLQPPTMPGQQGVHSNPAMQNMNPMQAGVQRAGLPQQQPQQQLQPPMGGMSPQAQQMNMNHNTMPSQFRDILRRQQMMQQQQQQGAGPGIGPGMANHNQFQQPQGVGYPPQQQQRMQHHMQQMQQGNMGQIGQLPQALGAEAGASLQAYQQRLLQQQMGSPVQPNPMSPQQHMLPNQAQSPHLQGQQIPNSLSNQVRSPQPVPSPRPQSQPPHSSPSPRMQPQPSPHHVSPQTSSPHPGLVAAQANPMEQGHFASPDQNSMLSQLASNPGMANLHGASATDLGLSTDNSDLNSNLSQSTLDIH

`CN1CCC(Oc2ccc(NC(=O)C(NCCc3ccc(C#N)cc3)c3ccccc3)nc2)CC1` (single isomer, unassigned) [1 Isomer 1]: the figures for the IC50 (in assay [1]; on full length p300) were 27.7 nM and less than 2 nM, respectively. The same compound came in with an EC50 in assay [2] of 35 nM.

Consider `CN1CCC(Oc2ccc(NC(=O)C(NCCc3ccc(C#N)cc3)c3ccccc3)nc2)CC1` (single isomer, unassigned) [1 Isomer 2], for which the IC50 was greater than 5000 nM in assay [1] and 240 nM on full length p300.

As for `CC(=O)N1CC(Oc2ccc(NC(=O)C(NC[C@@H](C)c3ccc(C#N)cc3)c3ccccc3)nc2)C1` (single isomer, unassigned) [2 Isomer 1], the results for the 50% inhibitory concentration (IC50) (in assay [1]; at full length p300) were 21.2 nM and less than 2 nM, respectively. Further, in assay [2], the EC50 turned out to be 20 nM.

For `N#Cc1ccc(CCNC(C(=O)Nc2ccc(OC3CCOCC3)cn2)c2ccccc2)cc1` (single isomer, unassigned) [5 Isomer 1], the figures for the IC50 (in assay [1]; at full length p300) were 97.6 nM and 3.69 nM, respectively.

Consider `N#Cc1ccc(CCNC(C(=O)Nc2ccc(OC3CCOCC3)cn2)c2ccccc2)cc1` (single isomer, unassigned) [5 Isomer 2], for which the IC50 in assay [1] is greater than 2000 nM; on full length p300, 137 nM.

With `Cn1cc(COc2ccc(NC(=O)C(NCCc3ccc(Cl)cc3)c3ccccc3)nc2)cn1` (single isomer, unassigned) [8 Isomer 2], 16.8 nM corresponded to half-maximal inhibition in assay [1] (IC50). The response in assay [2] was half-maximal at 69 nM (EC50).

Take `CC(=O)N1CCC(Oc2ccc(NC(=O)C(NCCc3ccc(C#N)cc3)c3ccccc3)nc2)CC1` (single isomer, unassigned) [9 Isomer 1]: the values for the half-inhibitory concentration (IC50) (in assay [1]; on full length p300) were 56.4 nM and 4.21 nM, respectively.

Take `CC(=O)N1CCC(Oc2ccc(NC(=O)C(NCCc3ccc(C#N)cc3)c3ccccc3)nc2)CC1` (single isomer, unassigned) [9 Isomer 2]: the figures for the IC50 (in assay [1]; on full length p300) were greater than 2000 nM and 102 nM, respectively.

`CC(CNC(C(=O)Nc1ccc(OC2CN(C(=O)C3CC3)C2)cn1)c1ccccc1)c1ccc(C#N)cc1` (single isomer, unassigned) [21 Isomer 1]: the IC50 in assay [1] is 27.4 nM; on full length p300, less than 2 nM.

For the compound `CC(=O)N1CC(Oc2ccc(NC(=O)C(NCC(C)c3ccc(C#N)cc3)c3cccc(F)c3)nc2)C1` (single isomer, unassigned) [23 Isomer 1], the IC50 in assay [1] was 23.3 nM; at full length p300 it was less than 3 nM. Further, in assay [2], the EC50 was 31.9 nM.

In assay [1], `CC(=O)N1CC(Oc2ccc(NC(=O)C(NCC(C)c3ccc(C#N)cc3)c3cccc(F)c3)nc2)C1` (single isomer, unassigned) [23 Isomer 2] registered an IC50 of 965 nM.

As to `CC(=O)N1CC(Oc2ccc(NC(=O)C(NCC(C)c3ccc(C#N)cc3)c3cnn(C)c3)nc2)C1` (single isomer, unassigned) [24 Isomer 1], the IC50 in assay [1] is 38 nM; at full length p300, less than 3 nM. For the same compound, a half-maximal response in assay [2] (EC50) required 57 nM.

In assay [1], `CC(=O)N1CC(Oc2ccc(NC(=O)C(NCC(C)c3ccc(C#N)cc3)c3cnn(C)c3)nc2)C1` (single isomer, unassigned) [24 Isomer 2] yielded an IC50 of 578 nM.

In turn, `CC(=O)N1CC(Oc2ccc(NC(=O)C(NCC(C)c3ccc(C#N)cc3)c3cnn(C)c3)nc2)C1` (single isomer, unassigned) [24 Isomer 3] gave a half-inhibitory concentration (IC50) in assay [1] greater than 2000 nM.

Turning to `CC(=O)N1CC(Oc2ccc(NC(=O)C(NCC(C)c3ccc(C#N)cc3)c3cnn(C)c3)nc2)C1` (single isomer, unassigned) [24 Isomer 4], the IC50 in assay [1] is greater than 2000 nM.

`CC(CNC(C(=O)Nc1ccc(OC2CN(C(=O)OC(C)(C)C)C2)cn1)c1ccccc1)c1ccc(C#N)cc1` (single isomer, unassigned) [25 Isomer 1] showed an IC50 in assay [1] greater than 1000 nM.

The compound `CC(CNC(C(=O)Nc1ccc(OC2CN(C(=O)OC(C)(C)C)C2)cn1)c1ccccc1)c1ccc(C#N)cc1` (single isomer, unassigned) [25 Isomer 2] displayed a concentration for half-maximal inhibition (IC50) in assay [1] of 115 nM.
